Assay results reported in patent US9975900B2, “Substituted imidazo[1,2-α]pyrazines for treating spinal muscular atrophy” (Hoffmann-La Roche Inc., priority 2014, dated 2018).
Where a name gives a salt, the structure may show the parent alone.

Columns and labels:
[1] = system: full length SMN2 minigene mRNA (HEK293H cells stably transfected with the SMN2-A minigene construct); test: RT-qPCR assay for SMN2 minigene pre-mRNA splicing in cultured cells; assay type: cell-based; settings: Homo sapiens, HEK293-H, 24 hours, 7-point concentration curve, concentration giving 1.5-fold FL SMN2mini mRNA vs vehicle, read-out: EC1.5x minigene (EC1.5x concentration for production of full length SMN2 minigene mRNA)
Procedure: The reverse transcription-quantitative PCR-based (RT-qPCR) assay is used to quantify the level of the full length SMN2 minigene (referred to herein by the term “FL SMN2mini”) mRNA containing SMN2 exon 7 in a HEK293H cell line stably transfected with said minigene and treated with a test compound. Materials used and respective sources are listed below in Table 1.
The SMN2-A minigene construct was prepared as described in International Patent Application WO2009/151546A1 page 145 paragraph [00400] to page 147 paragraph [00412] (incl. FIG. 1 and FIG. 3 therein).
HEK293H cells stably transfected with the SMN2-A minigene construct (10,000 cells/well) are seeded in 200 μL of cell culture medium (DMEM plus 10% FBS, with 200 μg/mL hygromycin) in 96-well flat-bottom plates and the plate is immediately swirled to ensure proper dispersal of cells and the formation of an even monolayer of cells. Cells are allowed to attach for 6 hours. Test compounds are serially diluted 3.16-fold in 100% DMSO to generate a 7-point concentration curve. A solution of test compound (1 μL, 200× in DMSO) is added to each cell-containing well and the plate is incubated for 24 hours in a cell culture incubator (37° C., 5% CO2, 100% relative humidity). 2 replicates are prepared for each test compound concentration. The cells are then lysed in the Cells-To-Ct lysis buffer and the lysate is stored at −80° C.
Full length SMN2-A minigene and GAPDH mRNA are quantified using the primers and probes referenced in Table 2. Primer SMN Forward A (SEQ ID NO.1) hybridizes to a nucleotide sequence in exon 7 (nucleotide 22 to nucleotide 40), primer SMN Reverse A (SEQ ID NO.2) hybridizes to a nucleotide sequence in the coding sequence of Firefly luciferase, SMN Probe A (SEQ ID NO.3) hybridizes to a nucleotide sequence in exon 7 (nucleotide 50 to nucleotide 54) and exon 8 (nucleotide 1 to nucleotide 21). The combination of these three oligonucleotides detects only SMN1 or SMN2 minigenes (RT-qPCR) and will not detect endogenous SMN1 or SMN2 genes.
The SMN forward and reverse primers are used at final concentrations of 0.4 μM. The SMN probe is used at a final concentration of 0.15 μM. The GAPDH primers are used at final concentrations of 0.2 μM and the probe at 0.15 μM.
The SMN2-minigene GAPDH mix (15 μL total volume) is prepared by combining 7.5 of 2×RT-PCR buffer, 0.4 μL of 25×RT-PCR enzyme mix, 0.75 μL of 20× GAPDH primer-probe mix, […] of water, 2 μL of 10-fold diluted cell lysate, 0.06 μL of 100 μM SMN forward primer, 0.06 μL of 100 μM SMN reverse primer, and 0.225 μL of 100 μM SMN probe.
PCR is carried out at the following temperatures for the indicated time: Step 1: 48° C. (15 min); Step 2: 95° C. (10 min); Step 3: 95° C. (15 sec); Step 4: 60° C. (1 min); then repeat Steps 3 and 4 for a total of 40 cycles.
Each reaction mixture contains both SMN2-A minigene and GAPDH primers/probe sets (multiplex design), allowing simultaneous measurement of the levels of two transcripts.
The increase in the abundance of the FL SMN2mini mRNA relative to that in cells treated with vehicle control is determined from real-time PCR data using a modified ΔΔCt method (as described in Livak and Schmittgen, Methods, 2001, 25:402-8). The amplification efficiency E is calculated from the slope of the amplification curve for FL SMN2mini and GAPDH individually. The abundance of FL SMN2mini and GAPDH mRNA are then calculated as (1+E)^−Ct, where Ct is the threshold value for each amplicon. The abundance of FL SMN2mini mRNA is normalized to GAPDH mRNA abundance. The normalized FL SMN2mini mRNA abundance from test compound-treated samples is then divided by normalized FL SMN2mini mRNA abundance from vehicle-treated cells to determine the level of FL SMN2mini mRNA relative to vehicle control. […]

[2] = system: SMN protein in SMA patient fibroblast cells (GM03813); test: SMN protein assay (HTRF) in cultured cells; assay type: cell-based; settings: Homo sapiens, SMA Type 1 patient fibroblasts, 48 hours; for EC (1.5-fold): 7-point concentration curve, concentration giving 1.5 times SMN protein vs vehicle, read-out: EC1.5x SMN protein (EC1.5x concentration for SMN protein expression); for maximal fold induction: fold increase relative to vehicle control, read-out: Max. fold increase of SMN protein
Procedure: The SMN HTRF (homogeneous time resolved fluorescence) assay is used to quantify the level of SMN protein in SMA patient fibroblast cells treated with test compounds. Materials used and respective sources are listed below in Table 4.
Cells are thawed and cultured in DMEM-10% FBS for 72 hours. Cells are trypsinized, counted and re-suspended to a concentration of 25,000 cells/mL in DMEM-10% FBS. The cell suspensions are plated at 5,000 cells per well in a 96 well microtiter plate and incubated for 3 to 5 hours. Test compounds are serially diluted 3.16-fold in 100% DMSO to generate a 7-point concentration curve. 1 μL of test compound solution is transferred to cell-containing wells and cells are incubated for 48 hours in a cell culture incubator (37° C., 5% CO2, 100% relative humidity). Triplicate samples are set up for each test compound concentration. After 48 hours, the supernatant is removed from the wells and 25 μL of the RIPA lysis buffer, containing protease inhibitors, is added to the wells and incubated with shaking at room temperature for 1 hour. 25 μL of the diluent is added and then 35 μL of the resulting lysate is transferred to a 384-well plate, where each well contains 5 μL of the antibody solution (1:100 dilution of anti-SMN d2 and anti-SMN cryptate in SMN reconstitution buffer). The plate is centrifuged for 1 minute to bring the solution to the bottom of the wells, then incubated overnight at room temperature. Fluorescence for each well of the plate at 665 nm and 620 nm is measured on an EnVision multilabel plate reader (Perkin-Elmer).
The normalized fluorescence signal is calculated for each sample, Blank and vehicle control well by dividing the signal at 665 nm by the signal at 620 nm. Normalizing the signal accounts for possible fluorescence quenching due to the matrix effect of the lysate. The ΔF value (a measurement of SMN protein abundance as a percent value) for each sample well is calculated by subtracting the normalized average fluorescence for the Blank control wells from the normalized fluorescence for each sample well, then dividing this difference by the normalized average fluorescence for the Blank control wells and multiplying the resulting value by 100. The ΔF value for each sample well represents the SMN protein abundance from test compound-treated samples. The ΔF value for each sample well is divided by the ΔF value for the vehicle control wells to calculate the fold increase in SMN protein abundance relative to the vehicle control. Table 5 provides EC1.5× concentrations for SMN protein expression that was obtained from the 7-point concentration data generated according to the above procedure for particular compounds of the present invention.
Table 6 provides the maximum fold increase of SMN protein that was obtained from the 7-point concentration data generated according to the above procedure for particular compounds of the present invention

Row | Structure (SMILES) | EC (1.5-fold) [1] [µM] | EC (1.5-fold) [2] [µM] | maximal fold induction [2]
1 | CCOc1cc(N2C[C@@H](C)N[C@@H](C)C2)ccc1C(=O)Nc1cn2cc(C)nc2cn1 [Example 10, 4-[(3S,5R)-3,5-dimethylpiperazin-1-yl]-2-ethoxy-N-(2-methylimidazo[1,2-a]pyrazin-6-yl)benzamide] | 0.0383 | 0.13 | 1.91
2 | CCOc1cc(N2CCN[C@H](C)C2)ccc1C(=O)Nc1cn2cc(C)nc2cn1 [Example 5, 2-ethoxy-N-(2-methylimidazo[1,2-a]pyrazin-6-yl)-4-[(3R)-3-methylpiperazin-1-yl]benzamide] | 0.041 | 0.185 | 1.9
3 | Cc1cn2cc(NC(=O)c3ccc(N4CCNCC4)cc3)ncc2n1 [Example 2, N-(2-methylimidazo[1,2-a]pyrazin-6-yl)-4-piperazin-1-ylbenzamide hydrochloride] | 1.05 | 2.25 | 1.74
4 | CCOc1cc(N2CCN3CCC[C@H]3C2)ccc1C(=O)Nc1cn2cc(C)nc2c(C)n1 [Example 12, 4-[(8aS)-3,4,6,7,8,8a-hexahydro-1H-pyrrolo[1,2-a]pyrazin-2-yl]-N-(2,8-dimethylimidazo[1,2-a]pyrazin-6-yl)-2-ethoxybenzamide] | 0.145 | 1.73 | 1.56
5 | COc1cc(N2CCNC(C)(C)C2)ccc1C(=O)Nc1cn2cc(C)nc2cn1 [Example 41, 4-(3,3-dimethylpiperazin-1-yl)-2-methoxy-N-(2-methylimidazo[1,2-a]pyrazin-6-yl)benzamide] | 0.0464 | 0.242 | 2.05
6 | Cc1cn2cc(NC(=O)c3ccc(N4CC[C@H](N5CCCC5)C4)cc3F)ncc2n1 [Example 24, 2-fluoro-N-(2-methylimidazo[1,2-a]pyrazin-6-yl)-4-[(3S)-3-pyrrolidin-1-ylpyrrolidin-1-yl]benzamide] | 0.051 | 0.113 | 1.75
7 | Cc1cn2cc(NC(=O)c3ccc(N4CCN[C@H](C)C4)cc3F)nc(C(F)(F)F)c2n1 [Example 43, 2-fluoro-4-[(3R)-3-methylpiperazin-1-yl]-N-[2-methyl-8-(trifluoromethyl)imidazo[1,2-a]pyrazin-6-yl]benzamide] | 0.04 | 0.087 | 1.76
8 | Cc1cn2cc(NC(=O)c3cc(F)c(N4CCNC(C)C4)cc3F)ncc2n1 (stereo not drawn) [Example 29, 2,5-difluoro-N-(2-methylimidazo[1,2-a]pyrazin-6-yl)-4-(3-methylpiperazin-1-yl)benzamide hydrochloride] | 0.0852 | 0.495 | 1.91
9 | Cc1cn2cc(NC(=O)c3ccc(N4CCN[C@H](C)C4)cc3F)nc(C3CC3)c2n1 [Example 23, N-(8-cyclopropyl-2-methylimidazo[1,2-a]pyrazin-6-yl)-2-fluoro-4-[(3R)-3-methylpiperazin-1-yl]benzamide hydrochloride] | 0.0268 | 0.0622 | 1.72
10 | CC[C@H]1CN(c2ccc(C(=O)Nc3cn4cc(C)nc4cn3)c(F)c2)CCN1 [Example 42, 4-[(3S)-3-ethylpiperazin-1-yl]-2-fluoro-N-(2-methylimidazo[1,2-a]pyrazin-6-yl)benzamide hydrochloride] | 0.0144 | 0.231 | 1.72
11 | CCc1nc(NC(=O)c2ccc(N3CCN[C@H](C)C3)cc2F)cn2cc(C)nc12 [Example 21, N-(8-ethyl-2-methylimidazo[1,2-a]pyrazin-6-yl)-2-fluoro-4-[(3R)-3-methylpiperazin-1-yl]benzamide hydrochloride] | 0.0204 | 0.162 | 1.8
12 | COc1cc(N2C[C@@H](C)N[C@@H](C)C2)ccc1C(=O)Nc1cn2cc(C)nc2cn1 [Example 31, 4-[(3R,5S)-3,5-dimethylpiperazin-1-yl]-2-methoxy-N-(2-methylimidazo[1,2-a]pyrazin-6-yl)benzamide] | 0.0358 | 0.221 | 1.87
13 | CCOc1cc(N2CCN3CCC[C@@H]3C2)ccc1C(=O)Nc1cn2cc(C)nc2cn1 [Example 6, 4-[(8aR)-3,4,6,7,8,8a-hexahydro-1H-pyrrolo[1,2-a]pyrazin-2-yl]-2-ethoxy-N-(2-methylimidazo[1,2-a]pyrazin-6-yl)benzamide] | 0.101 | 0.428 | 1.71
14 | Cc1cn2cc(NC(=O)c3c(F)cc(N4CCN[C@H](C)C4)cc3F)nc(C)c2n1 [Example 14, N-(2,8-dimethylimidazo[1,2-a]pyrazin-6-yl)-2,6-difluoro-4-[(3R)-3-methylpiperazin-1-yl]benzamide] | 0.0097 | 0.124 | 1.61
15 | Cc1cn2cc(NC(=O)c3c(F)cc(N4CCN5CCC[C@H]5C4)cc3F)nc(C)c2n1 [Example 18, 4-[(8aS)-3,4,6,7,8,8a-hexahydro-1H-pyrrolo[1,2-a]pyrazin-2-yl]-N-(2,8-dimethylimidazo[1,2-a]pyrazin-6-yl)-2,6-difluorobenzamide] | 0.0234 | 0.117 | 1.75
